Measured values taken from patent US20110009416A1, “PH INDEPENDENT FORMULATIONS OF 6-(5-CHLORO-2-PYRIDYL)-5-[(4-METHYL-1-PIPERAZINYL)CARBONYLOXY]-7-OXO-6,7-DIHYDRO-5H-PYRROLO[3,4-b]PYRAZINE” (SEPRACOR INC., priority 2009, published 2011).

Experiment: Dissolution over time of uncoated 3 mg eszopiclone tablets (Hanson SR8-Plus apparatus, fiber optic UV at 305 nm)
Assay type: physicochemical
Experimental: Dissolution over time of eszopiclone free base compounded with various solid acids was compared to that of free base at body temperature (37° C.) in dissolution media at various pH values using Hanson Research SR8—Plus Dissolution Apparatus and C-Technologies Fiber Optic UV Probes at 305 nm (excipients subtracted at 410 nm). The dissolution media used were (a) pH 1 (0.1N HCl) 50 ml of conc HCl mixed in 6 L of water; (b) pH 4.5 acetate buffer (20 mM) 5.88 g of sodium acetate trihydrate dissolved in 6 L of water, pH adjusted to 4.5 with acetic acid; (c) pH 5.5 phosphate buffer (20 mM) 16.3 g of potassium dihydrogen phosphate in 6 L of water. pH adjusted to 5.5 with NaOH; (d) pH 6.8 phosphate buffer (20 mM) 16.3 g of potassium dihydrogen phosphate in 6 L of water. pH adjusted 6.8 with NaOH. A standard dissolution protocol was used. The standard solution (0.006 mg/mL of eszopiclone free base) was prepared by weighing a known amount (−20 mg) of the free base into a 100 mL volumetric flask. 10 mL of acetonitrile was added into the flask and sonicated until the solids dissolved completely. The solution was cooled to room temperature and made up to the 100 mL mark using media and mixed well. Dilute 3 mL to 100 mL using media. The tables were prepared by transferring 500 mL dissolution media into the 6 vessels. Blank readings were taken for all the probes using media. Standards were read for individual vessels. Probes were washed with media and then inserted back into each vessel. […] The dissolution program was started immediately and readings were taken at 305 nm for 60 min (every 1 min for 20 min and then every 10 min)
The following tables display results of dissolution experiments in deionized (DI) water of uncoated tablets formed from 3 mg free base IR eszopiclone (with no more than 0.3% (R)-zopiclone) with various acids. […] The pH values of the media was measured using a pH paper, in-situ at various time points during the dissolution experiment run in deionized (DI) water of uncoated tablets formed from 3 mg free base IR eszopiclone with 12% L-malic acid. […]

SMILES: CN1CCN(C(=O)O[C@H]2c3nccnc3C(=O)N2c2ccc(Cl)cn2)CC1 [free base, [(9S)-8-(5-chloropyridin-2-yl)-7-oxo-2,5,8-triazabicyclo[4.3.0]nona-1,3,5-trien-9-yl]-4-methyl piperazine-1-carboxylate]
- dissolution profile in water (in words) (in water, FIG. 2 and FIG. 4, up to one hour): slow and incomplete
- dissolved at one hour (in water, FIG. 4, one hour): less than 50%
- dissolution profile at pH 1 (in words) (pH 1, FIG. 3): dissolve rapidly and completely
